From PubChem BioAssay AID330 (DTP/NCI, 2004)
Values joined by “and” are separate entries in the source; they are usually repeats but may differ in a detail not shown here. Identical values can stand only once. Inconclusive results and toxic doses are left out. How the source made its calls: active means survival T/C of 150% or more; inactive means T/C below 125% in these data.

Test system: P388 leukemia ip, CD2F1 mice, survival T/C
Test: NCI In Vivo Anticancer Drug Screen. Data for tumor model P388 Leukemia (intraperitoneal) in CD2F1 (CDF1) mice
Conditions: endpoint: median survival time, higher = longer survival
How it was run: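 Mice carrying the transplanted tumor received test compound or vehicle. Survival was recorded in each group, and the value is the treated-group measurement divided by that of the vehicle-treated control group.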

[1] = dose: 50.0 mg/kg/injection, schedule: Q01DX005 (ip), vehicle: saline with Tween-80
[2] = dose: 100.0 mg/kg/injection, schedule: Q01DX005 (ip), vehicle: saline with Tween-80
[3] = dose: 200.0 mg/kg/injection, schedule: Q01DX005 (ip), vehicle: saline with Tween-80
[4] = dose: 50.0 mg/kg/injection, schedule: Q01DX005 (ip), vehicle: Klucel (hydroxypropylcellulose) (HPC)
[5] = dose: 100.0 mg/kg/injection, schedule: Q01DX005 (ip), vehicle: Klucel (hydroxypropylcellulose) (HPC)
[6] = dose: 200.0 mg/kg/injection, schedule: Q01DX005 (ip), vehicle: Klucel (hydroxypropylcellulose) (HPC)
[7] = dose: 100.0 mg/kg/injection, schedule: Q04DX003 (ip), vehicle: saline
[8] = dose: 200.0 mg/kg/injection, schedule: Q04DX003 (ip), vehicle: saline
[9] = dose: 400.0 mg/kg/injection, schedule: Q04DX003 (ip), vehicle: saline
[10] = dose: 60.0 mg/kg/injection, schedule: Q01DX005 (ip), vehicle: saline with Tween-80
[11] = dose: 120.0 mg/kg/injection, schedule: Q01DX005 (ip), vehicle: saline with Tween-80
[12] = dose: 240.0 mg/kg/injection, schedule: Q01DX005 (ip), vehicle: saline with Tween-80
[13] = dose: 50.0 mg/kg/injection, schedule: Q01DX009 (ip), vehicle: Klucel (hydroxypropylcellulose) (HPC)
[14] = dose: 60.0 mg/kg/injection, schedule: Q01DX005 (ip), vehicle: Klucel (hydroxypropylcellulose) (HPC)
[15] = dose: 120.0 mg/kg/injection, schedule: Q01DX005 (ip), vehicle: Klucel (hydroxypropylcellulose) (HPC)
[16] = dose: 12.5 mg/kg/injection, schedule: Q01DX009 (ip), vehicle: saline
[17] = dose: 50.0 mg/kg/injection, schedule: Q01DX009 (ip), vehicle: saline
[18] = dose: 100.0 mg/kg/injection, schedule: Q01DX009 (ip), vehicle: saline
[19] = dose: 12.5 mg/kg/injection, schedule: Q01DX005 (ip), vehicle: saline with Tween-80
[20] = dose: 50.0 mg/kg/injection, schedule: Q01DX009 (ip), vehicle: saline with Tween-80
[21] = dose: 100.0 mg/kg/injection, schedule: Q01DX009 (ip), vehicle: saline with Tween-80
[22] = dose: 200.0 mg/kg/injection, schedule: Q01DX009 (ip), vehicle: saline with Tween-80
[23] = dose: 100.0 mg/kg/injection, schedule: Q04DX002 (ip), vehicle: saline with Tween-80

Measured: T/C

O=c1[nH]c2nc(Cl)nc(Cl)c2[nH]1
inactive: [1] 98 % of control | [2] 94 % of control | [3] 93 % of control

c1ccc(-c2cc3nncc(-c4ccccc4)n3n2)cc1
inactive: [4] 107 % of control | [5] 105 % of control | [6] 96 % of control

CCC(O)Cn1cnc2c(N)ncnc21 (centres undefined)
inactive: [4] 99 % of control | [5] 99 % of control | [6] 100 % of control

Cn1c2nc(-[n+]3cccc(CO)c3)nc-2c([O-])n(C)c1=O
inactive: [7] 103 % of control | [8] 99 % of control | [9] 103 % of control

NC1=NN(S(=O)(=O)c2ccccc2)CC1
inactive: [4] 94 % of control | [5] 99 % of control | [6] 98 % of control

CC1CC[P+](Cc2ccccc2)(c2ccccc2)CC1 (centres undefined)
inactive: dose: 1.56 mg/kg/injection, schedule: Q04DX002 (ip), vehicle: saline 98 % of control | dose: 3.13 mg/kg/injection, schedule: Q04DX002 (ip), vehicle: saline 95 % of control | dose: 6.25 mg/kg/injection, schedule: Q04DX002 (ip), vehicle: saline 90 % of control

CN(C)CCCn1ncc(Sc2cc([N+](=O)[O-])ccc2N)c(Cl)c1=O
inactive: dose: 15.0 mg/kg/injection, schedule: Q01DX005 (ip), vehicle: saline with Tween-80 95 % of control | dose: 30.0 mg/kg/injection, schedule: Q01DX005 (ip), vehicle: saline with Tween-80 94 % of control | [10] 99 % of control and 107 % of control and 94 % of control | [11] 93 % of control | [12] 89 % of control

CCCCCC1NC(C(=O)O)CS1 (centres undefined)
inactive: dose: 50.0 mg/kg/injection, schedule: Q01DX009 (ip), vehicle: suspension in saline 88 % of control | dose: 100.0 mg/kg/injection, schedule: Q01DX009 (ip), vehicle: suspension in saline 94 % of control | dose: 200.0 mg/kg/injection, schedule: Q01DX009 (ip), vehicle: suspension in saline 102 % of control

O=C(c1ccc(Cl)cc1)c1cc2ccccc2oc1=O
inactive: [10] 92 % of control | [11] 93 % of control | [12] 93 % of control

CCOC(=O)NC(=S)c1ccc[nH]1
inactive: dose: 12.5 mg/kg/injection, schedule: Q01DX009 (ip), vehicle: Klucel (hydroxypropylcellulose) (HPC) 95 % of control | dose: 25.0 mg/kg/injection, schedule: Q01DX009 (ip), vehicle: Klucel (hydroxypropylcellulose) (HPC) 87 % of control | [13] 95 % of control and 98 % of control

COc1cc(C(=O)c2cc3c(cc2C=O)OCO3)cc(OC)c1OC
inactive: [4] 95 % of control | [5] 90 % of control | [6] 99 % of control

CC(=O)c1cc2cc3c4c(c2oc1=O)CCCN4CCC3
inactive: [14] 104 % of control | [15] 112 % of control

N#CCCNc1cc(O)c2c(c1O)C(=O)c1ccccc1C2=O
inactive: dose: 25.0 mg/kg/injection, schedule: Q01DX009 (ip), vehicle: other 88 % of control | dose: 50.0 mg/kg/injection, schedule: Q01DX009 (ip), vehicle: other 100 % of control | dose: 100.0 mg/kg/injection, schedule: Q01DX009 (ip), vehicle: other 95 % of control | dose: 200.0 mg/kg/injection, schedule: Q01DX009 (ip), vehicle: other 90 % of control

CCOC(=O)c1cnc2cc(F)ccc2c1Nc1ccc2c(c1)OCO2
inactive: [14] 99 % of control | [15] 97 % of control | dose: 240.0 mg/kg/injection, schedule: Q01DX005 (ip), vehicle: Klucel (hydroxypropylcellulose) (HPC) 105 % of control

O=C(O)c1c(Cl)c(Cl)c(Cl)c(Cl)c1-c1c2cc(I)c(=O)c(I)c-2oc2c(I)c(O)c(I)cc12
inactive: [16] 103 % of control | dose: 25.0 mg/kg/injection, schedule: Q01DX009 (ip), vehicle: saline 88 % of control | [1] 92 % of control | [17] 88 % of control and 91 % of control | [2] 86 % of control | [18] 97 % of control

C=C1CC2C(C1=O)C(c1ccc(OC)cc1)C13OC1CCC23 (centres undefined)
inactive: dose: 100.0 mg/kg/injection, schedule: Q04DX003 (ip), vehicle: Klucel (hydroxypropylcellulose) (HPC) 105 % of control | dose: 200.0 mg/kg/injection, schedule: Q04DX003 (ip), vehicle: Klucel (hydroxypropylcellulose) (HPC) 96 % of control | dose: 400.0 mg/kg/injection, schedule: Q04DX003 (ip), vehicle: Klucel (hydroxypropylcellulose) (HPC) 86 % of control

COC(=O)c1ccc(Nc2cn[nH]n2)cc1
inactive: [4] 101 % of control | [5] 100 % of control | [6] 98 % of control

C=Cc1cc[n+](CC(=O)c2ccccc2)cc1
inactive: dose: 3.12 mg/kg/injection, schedule: Q01DX009 (ip), vehicle: saline 90 % of control | dose: 6.25 mg/kg/injection, schedule: Q01DX009 (ip), vehicle: saline 90 % of control | [16] 103 % of control and 90 % of control

Cn1c(=O)c2c(nc(/N=C/c3cccc([N+](=O)[O-])c3)n2C)n(C)c1=O
inactive: [7] 100 % of control | [8] 94 % of control | [9] 86 % of control

CCCCCCCCCCCCCCCN1CCS(=O)(=O)CC1
inactive: [13] 98 % of control | dose: 100.0 mg/kg/injection, schedule: Q01DX009 (ip), vehicle: Klucel (hydroxypropylcellulose) (HPC) 94 % of control | dose: 200.0 mg/kg/injection, schedule: Q01DX009 (ip), vehicle: Klucel (hydroxypropylcellulose) (HPC) 94 % of control

CC1=CC(O)C(O)C2(C)C1CC1OC(=O)CC3C(C)C(O)C(=O)C2C13CO (centres undefined)
inactive: [19] 97 % of control | dose: 25.0 mg/kg/injection, schedule: Q01DX005 (ip), vehicle: saline with Tween-80 100 % of control | [1] 102 % of control

NC(=O)CSCC(=O)c1ccccc1
inactive: [1] 102 % of control | [2] 107 % of control | [3] 102 % of control

COc1cc(OC)c(C(c2cc3c(cc2O)OCO3)N2CCOCC2)c(OC)c1 (centres undefined)
inactive: [10] 118 % of control | [11] 120 % of control

Nc1c(Cl)cc(C(=O)NC2CC2)cc1Cl
inactive: dose: 25.0 mg/kg/injection, schedule: Q01DX009 (ip), vehicle: saline with Tween-80 94 % of control and 95 % of control | [20] 100 % of control and 88 % of control | [21] 102 % of control and 113 % of control | [22] 109 % of control and 89 % of control

O=c1[nH]c2c(ccc3c[n+]([O-])ccc32)c2c1CCC2
inactive: [20] 88 % of control | [21] 100 % of control | [22] 108 % of control

COc1ccc(C)c2c(NCCCCCCCCNc3c4ccccc4nc4c(OC)ccc(C)c34)c3ccccc3nc12
inactive: dose: 2.5 mg/kg/injection, schedule: Q01DX009 (ip), vehicle: water 100 % of control | dose: 5.0 mg/kg/injection, schedule: Q01DX009 (ip), vehicle: water 113 % of control | dose: 10.0 mg/kg/injection, schedule: Q01DX009 (ip), vehicle: water 105 % of control

CSC(/C=C1\C=Cc2ccccc2N1C)=NC#N
inactive: dose: 25.0 mg/kg/injection, schedule: Q04DX002 (ip), vehicle: saline with Tween-80 100 % of control | dose: 50.0 mg/kg/injection, schedule: Q04DX002 (ip), vehicle: saline with Tween-80 106 % of control | [23] 97 % of control

COc1cc(C)c(C)cc1C1(c2cc(C)c(C)cc2O)C(=O)c2ccccc2C1=O
inactive: [17] 100 % of control | [18] 93 % of control

COc1cc(C2(O)c3cc4c(cc3CCN2C)OCO4)cc(OC)c1OC (centres undefined)
inactive: [4] 97 % of control | [5] 96 % of control | [6] 90 % of control

CC1=NN(C(=O)CC(=O)Nc2ccc(C(=O)O)cc2)C(=O)C1N=Nc1ccc(I)cc1 (centres undefined)
inactive: [23] 96 % of control | dose: 200.0 mg/kg/injection, schedule: Q04DX002 (ip), vehicle: saline with Tween-80 98 % of control | dose: 400.0 mg/kg/injection, schedule: Q04DX002 (ip), vehicle: saline with Tween-80 120 % of control

NC(=NC(=O)c1ccccc1)N(CCc1ccccc1)CCc1ccccc1
inactive: [10] 104 % of control | [11] 100 % of control | [12] 109 % of control

CCC/C(=N\NC(=S)N1CCN(c2ccccn2)CC1)c1ccccn1
inactive: dose: 6.25 mg/kg/injection, schedule: Q01DX005 (ip), vehicle: saline with Tween-80 102 % of control and 104 % of control | [19] 107 % of control and 110 % of control
